ChEMBL document CHEMBL5727772, “Substituted 3,4,5,6,8,10,14,14a-octahydro-2h-2,6-methanopyrido[1′,2′:4,5]pyrazino[2,1-b][1,3]oxazocines and methods for treating viral infections” (2020)
pIC50: −log10 of the molar value.

Assay: 24 hours prior to assay, media containing 5 mM sodium butyrate were added to MDCKII cells in flasks, and cells were grown to 80-90% confluence. On assay day, cells were trypsinized and resuspended in Krebs-Henseleit Buffer (KHB), pH 7.4 at 5×10^6 […] cells/mL. Cells were preincubated for 15 min in assay plate before addition of test compound or substrate.Test compounds were serially diluted in DMSO and then spiked (2 μL) into in 0.4 mL KHB buffer containing wild-type or OCT2-transfected cells and incubated for 10 minutes. Assay was initiated with the addition of 0.1 mL of 100 μM 14C-TEA in KHB buffer (20 μM final concentration after mixing). The concentration of TEA is based on the Km. After 10 minutes of incubation, the assay mixture was quenched with addition of 0.5 mL of ice-cold 1×PBS buffer. Samples were then centrifuged at 1000 rpm for 5 min and supernatants were removed. Wash steps were repeated four times with ice-cold PBS. Finally, the cell pellets were lysed with 0.2N NaOH and let sit at room temperature for at least 30 min to ensure complete lysis.
Settings: MDCK-II

SMILES | pIC50
O=C(NCc1cc(F)ccc1F)c1cn2c(cc1=O)C(=O)N1C3CCC(C3)C1C2 (stereo not drawn) | 6.35
C[C@@H](NC(=O)c1cn2c(c(O)c1=O)C(=O)N1C(C2)O[C@@H]2CC[C@@H]1C2)c1ccc(F)cc1F (stereo partly drawn) | 6.21
O=C(NCc1c(F)cc(F)cc1F)c1cn2c(c(O)c1=O)C(=O)N1C3CCC(C3)O[C@H]1C2 (stereo partly drawn) | 6.86
